How the values were obtained:
[1] = for speed of sound / mass density / viscosity: 101.33 kPa, Liquid; for speed of sound: Sing-around technique in a fixed-path interferometer; for mass density: Vibrating tube method; for surface tension liquid-gas: Pendant drop shape; for viscosity: Capillary tube (Ostwald / Ubbelohde) method
[2] = refractive index (Na D-line) (dimensionless); conditions: 101.33 kPa, Liquid, Abbe refractometer

COS(=O)(=O)[O-].Cn1cc[n+](C)c1 [1,3-dimethylimidazolium methylsulfate]
Conditions	mass density, [1] [kg/m3]	refractive index, [2]	speed of sound, [1] [m/s]	surface tension liquid-gas, [1] [mN/m]	viscosity, [1] [mPa·s]
283.15 K	1338.24	1.48659	1851	–	–
288.15 K	1334.54	1.48525	1838	60.9	–
293.15 K	1330.88	1.48392	1826	60.3	92.76
298.15 K	1327.25	1.4827	1813	59.8	72.91
303.15 K	1323.65	1.48129	1801	59.5	58.35
308.15 K	1320.09	1.47999	1789	59.1	–
313.15 K	1316.57	1.47867	1777	58.9	39.21
318.15 K	1313.05	1.47726	1765	–	–
323.15 K	1309.55	1.47593	1753	–	27.78
328.15 K	1306.06	1.47421	1742	–	–
333.15 K	1302.59	1.47294	1730	–	21.01
338.15 K	1299.14	1.47154	1719	–	–
343.15 K	1295.7	1.47027	1708	–	16.01

Reference: the NIST ThermoML archive (doi:10.1021/je050434f)
